SMILES strings stand for the structures.

Data on 38 compounds can be found in patent US9422290B2, “Triazolopyridazine” (Boehringer Ingelheim International GmbH, priority 2012, dated 2016).

This experiment concerns the target BRD4-BD1 (Homo sapiens (Human), UniProt O60885). The experiment can be described thus: BRD4-H4 tetraacetylated peptide inhibition AlphaScreen. The following applies: 15 nM GST-BRD4-BD1 (aa 44-168), 15 nM biotinylated Acetyl-Histone H4 (Lys5, 8, 12, 16) peptide. It counts as binding. The method, then:
Compounds are diluted in serial dilution 1:5 in assay buffer from 10 mM stock in DMSO (100 μM start concentration) in white OptiPlate-384 (PerkinElmer). […] Subsequently, 6 μl of premixed AlphaLISA Glutathione Acceptor Beads and AlphaScreen Streptavidin Donor Beads from PerkinElmer (in assay buffer at a concentration of 10 μg/ml each) are added and the samples are incubated for 30 min at RT in the dark (shaking 300 rpm). Afterwards, the signal is measured in a PerkinElmer Envision HTS Multilabel Reader using the AlphaScreen protocol from PerkinElmer. […] Negative control values are entered as low basis value when using the software GraphPad Prism for calculations. Furthermore, a positive control (probe molecule JQ1+ with protein/peptide mix) is pipetted. Determination of IC50 values are carried out using GraphPad Prism 3.03 software (or updates thereof).
(In Alpha technology, singlet oxygen from a donor bead excites a nearby acceptor bead.)

What is called IC50 is the midpoint of a concentration-inhibition curve. Lower therefore signals greater potency in that assay. The compound `COCCN1CCC(Nc2cc(-c3cnn(C)c3Oc3ccccc3)nn3c(C)nnc23)CC1` [II-6] had an IC50 of 8 nM.

In turn, `CNc1cc(-c2cn(C)nc2Oc2ccccc2)nn2c(C)nnc12` [II-15] returned an IC50 of 29 nM.

For `Cc1nnc2c(N[C@H]3CCOC3)cc(N(C)Cc3ccccc3)nn12` [Example I-3], the midpoint of inhibition, the IC50, lay at 67 nM.

In turn, `Cc1nnc2c(NC3CCN(S(=O)(=O)C4CCNC4)CC3)cc(N(C)Cc3ccccc3)nn12` (centres unmarked) [III-6] registered an IC50 of 33 nM.

Compound `Cc1nnc2c(N[C@@H]3CCOC3)cc(N(C)Cc3ccccc3)nn12` [Example I-4] showed a 50% inhibitory concentration (IC50) of 25 nM.

Compound `CNc1cc(N(C)Cc2ccc(F)cc2)nn2c(C)nnc12` [Example I-6] gave an IC50 of 74 nM.

On to `Cc1nnc2c(NC3CCN(S(=O)(=O)C4CCN(C)CC4)CC3)cc(N(C)Cc3ccccc3)nn12` [III-9], for which the 50% inhibitory concentration (IC50) was determined as 40 nM.

In turn, `Cc1nnc2c(NC3CCOCC3)cc(N(C)Cc3ccccc3)nn12` [Example I-2] returned an IC50 of 83 nM.

`Cc1nnc2c(NC3CCN(S(=O)(=O)C4CCN(C)C4)CC3)cc(N(C)Cc3ccccc3)nn12` (centres unmarked) [III-10] gave an IC50 of 44 nM.

As to `Cc1nnc2c(NC(C)C)cc(-c3cnn(C)c3Oc3ccccc3)nn12` [II-17], the IC50 stood at 140 nM.

As to `Cc1nnc2c(NC3CCN(C)CC3)cc(-c3cnn(C)c3Cc3ccccc3)nn12` [II-1, [6-(5-Benzyl-1-methyl-1H-pyrazol-4-yl)-3-methyl-[1,2,4]triazolo[4,3-b]pyridazin-8-yl]-(1-methyl-piperidin-4-yl)-amine], the midpoint of inhibition, the IC50, lay at 10 nM.

In turn, `CCN1CCC(Nc2cc(N(C)Cc3ccccc3)nn3c(C)nnc23)CC1` [III-2, N6-Benzyl-N8-(1-ethyl-piperidin-4-yl)-3,N6-dimethyl-[1,2,4]triazolo[4,3-b]pyridazine-6,8-diamine] displayed a half-maximal inhibitory concentration (IC50) of 3 nM.

In turn, `Cc1nnc2c(NC3CCN(C)CC3)cc(-c3cc4ccccc4n3Cc3ccccc3)nn12` [II-5, [6-(1-Benzyl-1H-indol-2-yl)-3-methyl-[1,2,4]triazolo[4,3-b]pyridazin-8-yl]-(1-methyl-piperidin-4-yl)-amine] yielded an IC50 of 105 nM.

Compound `Cc1cc(-c2cn(C)nc2Cc2ccccc2)nn2c(C)nnc12` [II-11] displayed a 50% inhibitory concentration (IC50) of 64 nM.

For the compound `Cc1nnc2c(NC3CCN(S(=O)(=O)CCN(C)C)CC3)cc(N(C)Cc3ccccc3)nn12` [III-11], the IC50 was found to be 39 nM.

In turn, `Cc1nnc2c(NC3CCN(S(=O)(=O)CCCN(C)C)CC3)cc(N(C)Cc3ccccc3)nn12` [III-5] came in with an IC50 of 37 nM.

The compound `CNc1cc(-c2cn(C)nc2Cc2ccccc2)nn2c(C)nnc12` [II-10] had an IC50 of 38 nM.

As for `CC(=O)N1CCC(Nc2cc(N(C)Cc3ccccc3)nn3c(C)nnc23)CC1` [III-1, 1-{4-[6-(Benzyl-methyl-amino)-3-methyl-[1,2,4]triazolo[4,3-b]pyridazin-8-ylamino]-piperidin-1-yl}-ethanone], half-maximal inhibition (IC50) required 61 nM.

Compound `Cc1nnc2c(NC3CCN(C)CC3)cc(-c3cnn(C)c3Oc3ccccc3)nn12` [II-7] registered an IC50 of 8 nM.

For the compound `CNc1cc(-c2cnn(C)c2Oc2ccccc2)nn2c(C)nnc12` [II-14], half-maximal inhibition (IC50) was put at 26 nM.

Take `Cc1nnc2c(NC3CCN(C)CC3)cc(-c3c(Cc4ccccc4)c4ccccc4n3C)nn12` [II-4]: the midpoint of inhibition, the IC50, lay at 37 nM.

`Cc1nnc2c(NC3CCN(C)CC3)cc(-c3cn(C)nc3Cc3ccccc3)nn12` [II-9] yielded an IC50 of 3 nM.

Compound `COCCN1CCC(Nc2cc(N(C)Cc3ccccc3)nn3c(C)nnc23)CC1` [III-3, N6-Benzyl-N8-[1-(2-methoxy-ethyl)-piperidin-4-yl]-3,N6-dimethyl-[1,2,4]triazolo[4,3-b]pyridazine-6,8-diamine] gave an IC50 of 3 nM.

As for `Cc1nnc2c(NC3CCN(C)CC3)cc(N(C)Cc3ccccc3)nn12` [Example I-1, N6-Benzyl-3,N6-dimethyl-N8-(1-methyl-piperidin-4-yl)-[1,2,4]triazolo[4,3-b]pyridazine-6,8-diamine], the IC50 turned out to be 3 nM.

With `CNc1cc(N(C)Cc2ccccc2)nn2c(C)nnc12` [Example I-5], the midpoint of inhibition, the IC50, lay at 83 nM.

In the case of `Cc1nnc2c(NC(C)C)cc(-c3cn(C(C)C)nc3Cc3ccccc3)nn12` [II-16], half-maximal inhibition (IC50) required 711 nM.

For the compound `Cc1nnc2c(NC3CCN(S(=O)(=O)CCN)CC3)cc(N(C)Cc3ccccc3)nn12` [III-8], inhibition was half-maximal at 32 nM (IC50).

Turning to `Cc1nnc2c(NC3CCN(S(=O)(=O)C4CCNCC4)CC3)cc(N(C)Cc3ccccc3)nn12` [III-7], the IC50 was 57 nM.

For `Cc1nnc2c(NC3CCN(C)CC3)cc(-c3ccnn3Cc3ccccc3)nn12` [II-2], the concentration for half-maximal inhibition (IC50) was found to be 117 nM.

`Cc1nnc2c(NC(C)C)cc(-c3cn(C)nc3Cc3ccccc3)nn12` [II-19] returned an IC50 of 105 nM.

In turn, `Cc1nnc2c(Cl)cc(-c3cn(C)nc3Cc3ccccc3)nn12` [II-12, 3-benzyl-4-{8-chloro-3-methyl-[1,2,4]triazolo[4,3-b]pyridazin-6-yl}-1-methyl-1H-pyrazole] gave a half-inhibitory concentration (IC50) of 51 nM.

As for `COCCN1CCC(Nc2cc(-c3cn(C)nc3Cc3ccccc3)nn3c(C)nnc23)CC1` [II-8], the IC50 was 4 nM.

As to `CSc1cc(-c2cn(C)nc2Cc2ccccc2)nn2c(C)nnc12` [II-13], the half-maximal inhibitory concentration (IC50) came to 2000 nM.

On to `CNc1cc(-c2cn(C)nc2Oc2ccccn2)nn2c(C)nnc12` [II-21], for which the IC50 came out at 72 nM.

In turn, `Cc1nnc2c(NC3CCN(C)CC3)cc(-c3[nH]c4ccccc4c3Cc3ccccc3)nn12` [II-3] gave an IC50 of 3 nM.

Turning to `Cc1nnc2c(NC3CCN(C=O)CC3)cc(N(C)Cc3ccccc3)nn12` [III-4], the half-maximal inhibitory concentration (IC50) turned out to be 40 nM.

Turning to `Cc1nnc2c(NC(C)C)cc(-c3cn(C)nc3Oc3ccccc3)nn12` [II-18], the IC50 amounted to 31 nM.

In turn, `Cc1nnc2c(NC(C)C)cc(-c3cn(C)nc3Oc3ccccn3)nn12` [II-20] displayed an IC50 of 43 nM.
